# Where two headings read alike, the source gives them in different places.
# Legend:
# [1] = target: T1, HIV-1 RT-RNase H (Human immunodeficiency virus type 1 group M subtype B, UniProt P04585); test: RNase H inhibitory assay (fluorescent RNA/DNA hybrid); format: biochemical; conditions: for IC50: wild type p66/p51 HIV-1 RT
# T1 construct: preparation and purification of wild type p66/p51 HIV-1 RT; made in house
# Procedure: The previously reported procedure was used for preparation and purification of wild type p66/p51 HIV-1 RT. Enzyme was stored in a 50% glycerol-containing buffer at −20 °C [32, 46]. An 18-nt 3′-fluorescein-labeled RNA annealed to a complementary 18-nt 5′-dabsyl-labeled DNA was used to determine IC50 values, following a previously described procedure. In brief, 1 μL of each inhibitor dissolved in DMSO was added to a 96-well plate, followed by 10 μL of the proper RT ([…]) in reaction buffer. The addition of 10 μL of RNA/DNA hybrid (2.5 μM) initiated the hydrolysis. Then, 50 mM Tris-HCl, pH 8.0, 60 mM KCl, 10 mM MgCl2, 1% DMSO, 150−800 ng of RT, 250 nM substrate, and increasing concentrations of inhibitor were chosen as final assay conditions. As negative control, wells containing only DMSO were used. Subsequently, the plates were incubated in a Spectramax Gemini EM fluorescence spectrometer for 10 min at 37 °C, measuring the fluorescence (λex = 485 nm; λem = 520 nm) at 1 min intervals in order to determine the linear initial rates in the presence (vi) and absence (vo) of inhibitor. Percent inhibition was assessed as 100(vo − vi)/vo and plotted against log[I]. Prism5 (GraphPad Software 5.0) was used to calculate the IC50 values. All assays were carried out in triplicate.
# [2] = target: T1, HIV-1 RT-RNase H; parameters: method as in PMID 23631411; conditions: cited from earlier work
# [3] = target: T2, HIV-1 IN LEDGF/p75-dependent activity (Human immunodeficiency virus type 1 group M subtype B, UniProt P04585); test: HTRF LEDGF-dependent IN assay; format: biochemical; conditions: for IC50: recombinant IN with LEDGF/p75, HTRF; for IN inhibitory activity (in words): LEDGF/p75-dependent IN activity
# T2 construct: Recombinant His and FLAG-IN proteins and His and FLAG-LEDGF proteins were expressed in Escherichia coli strain BL21 (DE3); His or FLAG (separate preparations); made in house; host or cells: Escherichia coli BL21 (DE3)
# Procedure: Recombinant His and FLAG-IN proteins and His and FLAG-LEDGF proteins were expressed in Escherichia coli strain BL21 (DE3) and purified, as previously described.
# IN activity in the presence of recombinant LEDGF/p75 protein were determined as described before. IN was pre-incubated in reaction buffer containing 20 mM HEPES pH 7.5, 1 mM DTT, 1% glycerol, 20 mM MgCl2, 0.05% Brij-35 and 0.1 mg/mL BSA with increasing concentration of compounds for 1 h at room temperature. After the addition to this mixture of 9 nM DNA donor substrate, 50 nM DNA acceptor substrate and 50 nM LEDGF/p75 protein (when required), the reaction was incubated at 37 °C for 90 min. The addition of 4 nM of Europium–Streptavidin to the reaction mixture provided the HTRF signal, which was recorded using a Perkin Elmer (Waltham, MA, USA) Victor 3 plate reader with 314 nm for excitation wavelength and 668 and 620 nm for the wavelength of the acceptor and the donor substrates emission, respectively.
# [4] = target: T2, HIV-1 IN LEDGF/p75-dependent activity; parameters: method as in PMID 23631411; conditions: first experiment, 3,4-catechol analogue of 5; cited from earlier work
Compound,IC50 [1],IC50 [3],other results
"Cc1sc2nc(-c3ccc(O)c(O)c3)[nH]c(=O)c2c1C [Compound 8, 2-(3,4-dihydroxyphenyl)-5,6-dimethylthieno[2,3-d]pyrimidin-4(3H)-one]",0.26 ± 0.01 µM,24.4 ± 2.6 µM,IC50 [2]: 0.26 ± 0.01 µM
O=c1[nH]c(-c2ccc(O)c(O)c2)nc2sc3c(c12)CCCCC3 [Compound 9],,18.3 ± 2.3 µM,IC50 [2]: 0.29 ± 0.11 µM
"Cc1sc2nc(-c3cccc(O)c3O)[nH]c(=O)c2c1C [Compound 10, 2-(2,3-dihydroxyphenyl)-5,6-dimethylthieno[2,3-d]pyrimidin-4(3H)-one]",,12.6 ± 1.29 µM,
"Cc1sc2nc(-c3ccccc3O)[nH]c(=O)c2c1C [Compound 11, 2-(2-hydroxyphenyl)-5,6-dimethylthieno[2,3-d]pyrimidin-4(3H)-one]",,22 ± 2.8 µM,
"Cc1sc2nc(-c3ccc(O)cc3O)[nH]c(=O)c2c1C [Compound 12, 2-(2,4-dihydroxyphenyl)-5,6-dimethylthieno[2,3-d]pyrimidin-4(3H)-one]",,22.3 ± 1.57 µM,
Cc1sc2nc(-c3cc(O)ccc3O)[nH]c(=O)c2c1C [Compound 13],,85 ± 6 µM,
"Cc1sc2nc(-c3cc(O)cc(O)c3)[nH]c(=O)c2c1C [Compound 14, 2-(3,5-dihydroxyphenyl)-5,6-dimethylthieno[2,3-d]pyrimidin-4(3H)-one]",,3.7 ± 0.73 µM,
O=c1[nH]c(-c2cccc(O)c2O)nc2sc3c(c12)CCCCC3 [Compound 15],,24 ± 1 µM,
O=c1[nH]c(-c2ccc(O)cc2O)nc2sc3c(c12)CCCCC3 [Compound 16],,10 ± 1 µM,
O=c1[nH]c(-c2cc(O)ccc2O)nc2sc3c(c12)CCCCC3 [Compound 17],,5.65 ± 0.15 µM,
O=c1[nH]c(-c2cc(O)cc(O)c2)nc2sc3c(c12)CCCCC3 [Compound 18],,3.37 ± 0.48 µM,
"CC1CCCc2sc3nc(-c4ccc(O)c(O)c4)[nH]c(=O)c3c21 (stereo not shown) [Compound 19, 2-(3,4-dihydroxyphenyl)-5-methyl-5,6,7,8-tetrahydrobenzo[4,5]thieno[2,3-d]pyrimidin-4(3H)-one]",,5.9 ± 0.5 µM,
"CC(C)Cc1csc2nc(-c3ccc(O)c(O)c3)[nH]c(=O)c12 [Compound 20, 2-(3,4-dihydroxyphenyl)-5-isobutylthieno[2,3-d]pyrimidin-4(3H)-one]",,8.5 ± 2.5 µM,
"Cc1sc2nc(-c3ccco3)[nH]c(=O)c2c1C [Compound 21, 2-(furan-2-yl)-5,6-dimethylthieno[2,3-d]pyrimidin-4(3H)-one]",2.5 ± 0.1 µM,5.75 ± 0.85 µM,
"Cc1ccc(-c2nc3sc(C)c(C)c3c(=O)[nH]2)o1 [Compound 22, 5,6-dimethyl-2-(5-methylfuran-2-yl)thieno[2,3-d]pyrimidin-4(3H)-one]",14.4 ± 0.2 µM,8.75 ± 0.35 µM,
Cc1sc2nc(-c3ccc([N+](=O)[O-])o3)[nH]c(=O)c2c1C [Compound 23],,4.6 ± 0.82 µM,IC50 [2]: 16.9 ± 1.7 µM
"Cc1sc2nc(-c3cccs3)[nH]c(=O)c2c1C [Compound 24, 5,6-dimethyl-2-(thiophen-2-yl)thieno[2,3-d]pyrimidin-4(3H)-one]",8.2 ± 1.3 µM,> 50 µM,IN inhibitory activity (in words) [3]: inactive
"Cc1sc2nc(-c3ccc([N+](=O)[O-])s3)[nH]c(=O)c2c1C [Compound 25, 5,6-dimethyl-2-(5-nitrothiophen-2-yl)thieno[2,3-d]pyrimidin-4(3H)-one]",> 50 µM,3.2 ± 0.8 µM,RNase H inhibitory activity (in words) [1]: completely inactive
Cc1sc2nc(-c3c[nH]c4ccccc34)[nH]c(=O)c2c1C [Compound 26],,2.85 ± 0.85 µM,IC50 [2]: 0.48 ± 0.6 µM
"Cc1sc2nc(-c3ccc[nH]3)[nH]c(=O)c2c1C [Compound 27, 5,6-dimethyl-2-(1H-pyrrol-2-yl)thieno[2,3-d]pyrimidin-4(3H)-one]",35.3 ± 1.5 µM,> 50 µM,IN inhibitory activity (in words) [3]: completely IN inactive
"Cc1sc2nc(-c3cccn3C)[nH]c(=O)c2c1C [Compound 28, 5,6-dimethyl-2-(1-methyl-1H-pyrrol-2-yl)thieno[2,3-d]pyrimidin-4(3H)-one]",14.8 ± 0.6 µM,> 50 µM,IN inhibitory activity (in words) [3]: completely IN inactive
CCCc1c(C)sc2nc(-c3ccc(O)c(O)c3)[nH]c(=O)c12 [Compound 29],,,IC50 [4]: > 50 µM

# — paper PMC10537185, “Dihydroxyphenyl- and Heteroaromatic-Based Thienopyrimidinones to Tackle HIV-1 LEDGF/p75-Dependent IN Activity” (Molecules, 2023)
